These results are taken from patent publication US10139410B2, “Protein-protein interaction as biomarkers” (H. LEE MOFFITT CANCER CENTER AND RESEARCH INSTITUTE, INC., priority 2011, dated 2018).

Structures are written as SMILES.

The test system of assay [1] is EGFR binding of Grb2, Mig6, Sts1. As to the kind of experiment: Affinity purification mass spectrometry (AP-MS) of EGFR interactions. It is filed as cell-based, human. Particulars: cells treated with erlotinib; data not shown. An excerpt:
The present inventors have initiated a system wide and global analysis of the PPI driven by hyperactivated epidermal growth factor receptor (EGFR) resulting from somatic mutation in non-small cell lung cancer (NSCLC) (17-19). The inventors' approach has been to combine (i) affinity purification—mass spectrometry (AP-MS) and (ii) phosphotyrosine proteomics. The inventors use cell models that harbor mutant EGFR proteins and are highly sensitive to EGFR TKI. As the network of EGFR is highly dependent on cell context, this approach offers the best chance of recovering pertinent proteins and mechanisms, a potential flaw in using cells other than lung cancer cells driven by mutant EGFR. Tagged versions of EGFR are initially used to identify interactions and second round of AP-MS is performed to more fully construct the network (20, 21). The inventors simultaneously performed tyrosine phosphoproteomics—tyrosine phosphorylated (pTyr) peptides are enriched using an anti-phosphotyrosine antibody and then identified and quantified on an Orbitrap mass spectrometer using published methods (9). […]
EGFR inhibitors are predicted to disrupt signaling complexes on the EGFR protein. […] Changes in EGFR PPI will be determined using PLA on these tumor samples. Measurements of EGFR PPI using PLA will be analyzed from the pre-treatment sample and again on the post-treatment sample.

The subject of the next assay is EGFR-GRB2 interactions. Set-up: species or system nude mice. Particulars: mouse, in vivo. The procedure: 5. […] Record start time • b. Incubation time should be 16-18 h
For the next assay, the system named is EGFR. Format: cell-based, human.
A further assay concerns EGFR-SHC1. Format: in vivo, mice. Particulars: H1650 (EGFR mutant) or H322 (EGFR wildtype) xenografts, with or without erlotinib, 18 days. As for the experimental part:
(§1) Tumor xenografts were established in mice with either H1650 (EGFR mutant) or H322 (EGFR wildtype), treated with or without erlotinib and allowed to grow for 18 days. Formalin-fixed, paraffin-embedded tumor tissue was analyzed by PLA for the interaction of EGFR-GRB2 (left) and EGFR-SHC1 (right). Nuclei are shown in blue, PLA signal is red and cytokeratin is green. For clarity, identical images are shown with and without cytokeratin staining for each tumor.
(§2) Tumor tissues from subcutaneous mouse models of lung cancer will be used. […] Mice have been selected for these experiments since they are most suitable for xenograft and […] studies of lung cancer, are readily available and not endangered, and can be safely maintained in the laboratory animal vivarium. CD-1 nu/nu mice mice will be purchased from approved vendors and housed in institutional animal facilities according to protocols set out by the American Association for Accreditation of Laboratory Animal Care. The inventor currently has active IACUC protocol for establishing subcutaneous tumor xenografts in mice. Both male and female mice of approximately six weeks of age will be used. Mice will be anesthetized in an induction chamber containing 3% isoflurane and 97% oxygen.

The test system of a further assay is EGFR-GRB2. It is filed as in vivo, mice. Particulars: H1650 (EGFR mutant) or H322 (EGFR wildtype) xenografts, with or without erlotinib, 18 days. As for the experimental part:
as §1, §2

The next assay has as its system lung cancer cell lines. In words: Sensitivity of lung cancer cell lines to EGFR TKI. It is filed as cell-based, human.
In another assay the test system is phosphor-EGFRY1068. In words: PLA for phosphorylated EGFR in cell lines (single antibody to phospho-EGFR Y1068). It is filed as cell-based, human. Particulars: PC9 cells, 3 hours of treatment. The procedure: 9. […] Record start time • b. Incubation time should be 16-18 h
11. […] Ensure complete coverage of tissue area.

For `C#Cc1cccc(Nc2ncnc3cc(OCCOC)c(OCCOC)cc23)c1` [erlotinib], in assay [1], the “EGFR binding partners by mass spectrometry” value was “no longer bound Grb2, Mig6 or Sts1”. Besides, in the assay with EGFR-GRB2 interactions, the “EGFR-GRB2 PLA signal in tumor” value was “considerably reduced” and the “proteins in complex with EGFR (PLA)” value is “reductions in proteins in complex with EGFR”. The EGFR tyrosine phosphorylation result in the assay on EGFR is listed as “inhibits”. In addition, in the assay on EGFR-SHC1, the “EGFR-SHC1 PLA signal in tumor tissue” value is “markedly reduced”. Moreover, in the assay on EGFR-GRB2, the “EGFR-GRB2 PLA signal in tumor tissue” value was “markedly reduced”. The “sensitivity to EGFR TKI (erlotinib)” value in the assay with lung cancer cell lines (A549, H23 and H460 cells) is “resistant”. Also, the erlotinib sensitivity entry in the assay on lung cancer cell lines (H322 and H1648 cells) is “some degree of erlotinib sensitivity”. For the same compound, the “sensitivity to EGFR TKI (erlotinib)” value with lung cancer cell lines (H1648, H322, H358 and H292 cells, wildtype EGFR) is listed as “some degree of sensitivity”. Also, in the assay with phosphor-EGFRY1068, the “phosphorylation of EGFR by PLA (pEGFR Y1068), confirmed by immunoblot” value is listed as “abolishes”.
